# Test results published in patent US20170190671A1, “BIS(ARYL)CATECHOL DERIVATIVES AS HERBICIDES” (E I DU PONT DE NEMOURS AND COMPANY, priority 2014, published 2017).
# How the values were obtained:
# Details in all cases: scale 0 to 100
# [1] = tested on: spring wheat (Triticum aestivum); assay: Test D preemergence; format: in vivo
# Source text: (§1) Seeds of plant species selected from bluegrass (annual bluegrass, Poa annua), blackgrass (Alopecurus myosuroides), canarygrass (Phalaris minor), chickweed (common chickweed, Stellaria media), cutleaf geranium (Geranium dissectum), galium (catchweed bedstraw, Galium aparine), downy bromegrass (Bromus tectorum), field poppy (Papaver rhoeas), field violet (Viola arvensis), green foxtail (Setaria viridis), deadnettle (henbit deadnettle, Lamium amplexicaule), Italian ryegrass (Lolium multiflorum), kochia (Kochia scoparia), lambsquarters (Chenopodium album), oilseed rape (Brassica napus), pigweed (Amaranthus retroflexus), chamomile (scentless chamomile, Matricaria inodora), Russian thistle (Salsola kali), speedwell (bird's-eye speedwell, Veronica persica), spring barley (Hordeum vulgare), spring wheat (Triticum aestivum), wild buckwheat (Polygonum convolvulus), wild mustard (Sinapis arvensis), wild oat (Avenafatua), wild radish (Raphanus raphanistrum), windgrass (Apera spica-venti), winter barley (Hordeum vulgare), and winter wheat (Triticum aestivum) were planted into a silt loam soil and treated preemergence with test chemicals formulated in a non-phytotoxic solvent mixture which included a surfactant.
# (§2) At the same time, these species were planted in pots containing Redi-Earth® planting medium (Scotts Company, 14111 Scottslawn Road, Marysville, Ohio 43041) comprising spaghnum peat moss, vermiculite, wetting agent and starter nutrients and treated with postemergence applications of the test chemicals formulated in the same manner. Plants ranged in height from 2 to 18 cm (1- to 4-leaf stage). Treated plants and controls were maintained in a controlled growth environment for 14 to 21 days after which time all species were compared to controls and visually evaluated. Plant response ratings, summarized in Table D, are based on a scale of 0 to 100 where 0 is no effect and 100 is complete control. A dash (-) response means no test result.
# [2] = tested on: wild mustard (Sinapis arvensis); assay: Test D preemergence; format: in vivo
# Source text: as §1, §2
# [3] = tested on: Italian ryegrass (Lolium multiflorum); assay: Test D preemergence; format: in vivo
# Source text: as §1, §2
# [4] = tested on: wild radish (Raphanus raphanistrum); assay: Test D preemergence; format: in vivo
# Source text: as §1, §2
# [5] = tested on: blackgrass (Alopecurus myosuroides); assay: Test D preemergence; format: in vivo
# Source text: as §1, §2
# [6] = tested on: green foxtail (Setaria viridis); assay: Test D preemergence; format: in vivo
# Source text: as §1, §2
# [7] = tested on: field violet (Viola arvensis); assay: Test D preemergence; format: in vivo
# Source text: as §1, §2
# [8] = tested on: galium (catchweed bedstraw, Galium aparine); assay: Test D preemergence; format: in vivo
# Source text: as §1, §2
# [9] = tested on: windgrass (Apera spica-venti); assay: Test D preemergence; format: in vivo
# Source text: as §1, §2
# [10] = tested on: winter barley (Hordeum vulgare); assay: Test D preemergence; format: in vivo
# Source text: as §1, §2
# [11] = tested on: speedwell (bird's-eye speedwell, Veronica persica); assay: Test D preemergence; format: in vivo
# Source text: as §1, §2
# [12] = tested on: wild oat (Avenafatua); assay: Test D preemergence; format: in vivo, Avena fatua
# Source text: as §1, §2
# [13] = tested on: Italian ryegrass (Lolium multiflorum); assay: Test D postemergence; format: in vivo
# Outline: (§3)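 Ratings of 0–100 reflect visual comparison with control plants at 14 to 21 days. For preemergence, compound was sprayed on silt loam just after sowing; for postemergence, on plants 2 to 18 cm in height.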
# [14] = tested on: wild radish (Raphanus raphanistrum); assay: Test D postemergence; format: in vivo
# Outline: as §3
# [15] = tested on: spring barley (Hordeum vulgare); assay: Test D postemergence; format: in vivo
# Outline: as §3
# [16] = tested on: galium (catchweed bedstraw, Galium aparine); assay: Test D postemergence; format: in vivo
# Outline: as §3
# [17] = tested on: windgrass (Apera spica-venti); assay: Test D postemergence; format: in vivo
# Outline: as §3
# [18] = tested on: speedwell (bird's-eye speedwell, Veronica persica); assay: Test D postemergence; format: in vivo
# Outline: as §3
# [19] = tested on: wild oat (Avenafatua); assay: Test D postemergence; format: in vivo, Avena fatua
# Source text: as §1, §2
compound,measurement,setting,value
"N#Cc1cccc(Oc2ncc(Cl)cn2)c1Oc1ncc(Cl)cn1 [Compound 3, 2,3-bis[(5-chloro-2-pyrimidinyl)oxy]benzonitrile]","Plant response rating, Wheat, Spring",[1]; 16 g ai/ha,0
same,"Plant response rating, Wheat, Spring",[1]; 31 g ai/ha,0
same,"Plant response rating, Wheat, Spring",[1]; 62 g ai/ha,10
same,"Plant response rating, Wheat, Spring",[1]; 125 g ai/ha,20
same,"Plant response rating, Mustard, Wild",[2]; 16 g ai/ha,15
same,"Plant response rating, Mustard, Wild",[2]; 31 g ai/ha,60
same,"Plant response rating, Mustard, Wild",[2]; 62 g ai/ha,95
same,"Plant response rating, Mustard, Wild",[2]; 125 g ai/ha,100
same,"Plant response rating, Ryegrass, Italian",[3]; 16 g ai/ha,0
same,"Plant response rating, Ryegrass, Italian",[3]; 31 g ai/ha,0
same,"Plant response rating, Ryegrass, Italian",[3]; 62 g ai/ha,50
same,"Plant response rating, Ryegrass, Italian",[3]; 125 g ai/ha,40
same,"Plant response rating, Radish, Wild",[4]; 16 g ai/ha,30
same,"Plant response rating, Radish, Wild",[4]; 31 g ai/ha,80
same,"Plant response rating, Radish, Wild",[4]; 62 g ai/ha,100
same,"Plant response rating, Radish, Wild",[4]; 125 g ai/ha,100
same,"Plant response rating, Blackgrass",[5]; 16 g ai/ha,0
same,"Plant response rating, Blackgrass",[5]; 31 g ai/ha,10
same,"Plant response rating, Blackgrass",[5]; 62 g ai/ha,35
same,"Plant response rating, Blackgrass",[5]; 125 g ai/ha,70
same,"Plant response rating, Foxtail, Green",[6]; 16 g ai/ha,10
same,"Plant response rating, Foxtail, Green",[6]; 31 g ai/ha,60
same,"Plant response rating, Foxtail, Green",[6]; 62 g ai/ha,100
same,"Plant response rating, Foxtail, Green",[6]; 125 g ai/ha,100
same,"Plant response rating, Field Violet",[7]; 16 g ai/ha,100
same,"Plant response rating, Field Violet",[7]; 31 g ai/ha,100
same,"Plant response rating, Field Violet",[7]; 62 g ai/ha,100
same,"Plant response rating, Field Violet",[7]; 125 g ai/ha,100
same,"Plant response rating, Galium",[8]; 16 g ai/ha,20
same,"Plant response rating, Galium",[8]; 31 g ai/ha,100
same,"Plant response rating, Galium",[8]; 62 g ai/ha,100
same,"Plant response rating, Galium",[8]; 125 g ai/ha,100
same,"Plant response rating, Windgrass",[9]; 16 g ai/ha,10
same,"Plant response rating, Windgrass",[9]; 31 g ai/ha,15
same,"Plant response rating, Windgrass",[9]; 62 g ai/ha,50
same,"Plant response rating, Windgrass",[9]; 125 g ai/ha,80
same,"Plant response rating, Barley, Winter",[10]; 16 g ai/ha,0
same,"Plant response rating, Barley, Winter",[10]; 31 g ai/ha,0
same,"Plant response rating, Barley, Winter",[10]; 62 g ai/ha,20
same,"Plant response rating, Barley, Winter",[10]; 125 g ai/ha,70
same,"Plant response rating, Speedwell",[11]; 16 g ai/ha,70
same,"Plant response rating, Speedwell",[11]; 31 g ai/ha,100
same,"Plant response rating, Speedwell",[11]; 62 g ai/ha,100
same,"Plant response rating, Speedwell",[11]; 125 g ai/ha,100
same,"Plant response rating, Oat, Wild",[12]; 16 g ai/ha,0
same,"Plant response rating, Oat, Wild",[12]; 31 g ai/ha,0
same,"Plant response rating, Oat, Wild",[12]; 62 g ai/ha,0
same,"Plant response rating, Oat, Wild",[12]; 125 g ai/ha,50
same,"Plant response rating, Ryegrass, Italian",[13]; 16 g ai/ha,0
same,"Plant response rating, Ryegrass, Italian",[13]; 31 g ai/ha,10
same,"Plant response rating, Ryegrass, Italian",[13]; 62 g ai/ha,10
same,"Plant response rating, Ryegrass, Italian",[13]; 125 g ai/ha,15
same,"Plant response rating, Radish, Wild",[14]; 16 g ai/ha,50
same,"Plant response rating, Radish, Wild",[14]; 31 g ai/ha,60
same,"Plant response rating, Radish, Wild",[14]; 62 g ai/ha,75
same,"Plant response rating, Radish, Wild",[14]; 125 g ai/ha,85
same,"Plant response rating, Barley, Spring",[15]; 16 g ai/ha,5
same,"Plant response rating, Barley, Spring",[15]; 31 g ai/ha,10
same,"Plant response rating, Barley, Spring",[15]; 62 g ai/ha,15
same,"Plant response rating, Barley, Spring",[15]; 125 g ai/ha,20
same,"Plant response rating, Galium",[16]; 16 g ai/ha,75
same,"Plant response rating, Galium",[16]; 31 g ai/ha,95
same,"Plant response rating, Galium",[16]; 62 g ai/ha,100
same,"Plant response rating, Galium",[16]; 125 g ai/ha,100
same,"Plant response rating, Windgrass",[17]; 16 g ai/ha,10
same,"Plant response rating, Windgrass",[17]; 31 g ai/ha,15
same,"Plant response rating, Windgrass",[17]; 62 g ai/ha,25
same,"Plant response rating, Windgrass",[17]; 125 g ai/ha,30
same,"Plant response rating, Speedwell",[18]; 16 g ai/ha,85
same,"Plant response rating, Speedwell",[18]; 31 g ai/ha,85
same,"Plant response rating, Speedwell",[18]; 62 g ai/ha,100
same,"Plant response rating, Speedwell",[18]; 125 g ai/ha,100
same,"Plant response rating, Oat, Wild",[19]; 16 g ai/ha,15
same,"Plant response rating, Oat, Wild",[19]; 31 g ai/ha,15
same,"Plant response rating, Oat, Wild",[19]; 62 g ai/ha,15
same,"Plant response rating, Oat, Wild",[19]; 125 g ai/ha,20
